In patent publication US20220184028A1, “TREATMENT OF AMYOTROPHIC LATERAL SCLEROSIS USING PKC ACTIVATORS” (Synaptogenix, Inc., priority 2020, published 2022):

Assay: Blood-brain-barrier crossing, brain and plasma levels in mice
Assay type: in vivo
Conditions: intravenous
Protocol: Further evaluation may be performed on bryostatin or other PKC activating compound crossing the blood-brain-barrier (BBB) and the steady state levels of bryostatin or other PKC activating compound in the brain and plasma of mice.
In contrast, plasma concentrations of bryostatin or other PKC activating compound may be greater when the drug is administered as a single injection for three consecutive weeks. Blood plasma concentrations of bryostatin or other PKC activating compound may be less in mice receiving a 25 μg/m^2 dose as a “1 on/1 off” or a “2 on/1 off” administration. Without being bound to a specific theory, it may be hypothesized that the intermittent dosing regimen facilitates the transport of bryostatin or other PKC activating compound across the BBB.

For `CCC/C=C/C=C/C(=O)O[C@H]1/C(=C/C(=O)OC)C[C@H]2C[C@H]([C@@H](C)O)OC(=O)C[C@H](O)C[C@@H]3C[C@H](OC(C)=O)C(C)(C)[C@](O)(C[C@@H]4C/C(=C/C(=O)OC)C[C@H](/C=C/C(C)(C)[C@]1(O)O2)O4)O3` [Bryostatin-1], the crossing the blood-brain-barrier was “crosses the BBB”.
